What all share (assay type): functional, cell-based
One assay concerns HCT-8. As to the kind of experiment: Cytotoxicity against human HCT8 cells after 5 days by MTT method. The note with it: HCT-8, 120 h. (Formazan colour is commonly taken as a measure of viable cells.)
In the next assay the test system is KB. Put plainly: Cytotoxicity against human KB cells after 5 days by MTT method. The note with it: 120 h.
A short description of assay [1]: Cytotoxicity against human Bel cells after 5 days by MTT method. The note with it: 120 h.

The IC50 is the concentration that gives 50% inhibition. A lower IC50 goes with inhibition by little substance.

In brackets after ≈: the same amount, converted by molar mass. Bounds are passed on as bounds.

For `CCCCCCCCCCCCCC[C@H](O)[C@@H]1C[C@@H](O)[C@@H]([C@@H](O)CC[C@@H](O)CCCCC[C@@H](O)CC2=C[C@H](C)OC2=O)O1` [DONNAIENIN], the concentration for half-maximal inhibition (IC50) is above 10 µg/mL in the assay with HCT-8, above 10 µg/mL in the assay with KB and 6.7 µg/mL (≈ 10.9 µM) in assay [1].

For the origin of these results see ChEMBL document CHEMBL1141739, “Donnaienin, a New Acetogenin Bearing a Hydroxylated Tetrahydrofuran Ring” (J Nat Prod, 1998).
